Data published in doi:10.1101/2023.05.15.540887, “Comparative analysis of drug-like EP300/CREBBP acetyltransferase inhibitors” (bioRxiv, 2023).

Columns and labels:
[1] = tested on: histone H3 acetylation in MCF-7 cells; assay: Western blot analysis of histone acetylation (H3K18Ac, H3K27Ac, H3K23Ac) in MCF-7 cells; format: cell-based, human; details: 3 h, 8 nM – 5 μM, compared among 1-3
Experimental: Next, we sought to quantitatively benchmark the properties of 1-3 in living cells. EP300 and CREBBP modify a wide variety of substrates in biochemical experiments and upon ectopic overexpression.[2] However, two well-characterized cellular histone lysine substrates of these enzymes are H3K18 and H3K27.[26] Even though H3K18Ac is the more abundant of the two markers, H3K27Ac is also of great interest due to its association with active enhancer regions. […] Cells were treated with escalating doses of 1-3 and harvested at 3 h to avoid overt cytotoxicity and allow the direct effects on acetylation to be observed (Fig. 3a). […] Control experiments indicated levels of H3K23Ac, which is not regulated by EP300/CREBBP, were not affected.
MCF-7 cells were plated in 1700 µL culture medium at 1 x 10^6 cells per well in 6-well dishes. After 16-24 h cells were treated with 300 µL of 1-3-containing media to yield a final concentration of 8 nM, 40 nM, 200 nM, 1 µM, or 5 µM EP300/CREBBP inhibitor (0.1% final concentrations of DMSO). Controls were treated with vehicle DMSO (0.1%). […]
Histone samples were quantified using the Precision Red Protein Assay (Cytoskeleton #ADV02). […]

[2] = tested on: MCF10A PANK4 KO+PANK4 mutant (D623A) cells; assay: Sulforhodamine B cell growth assay, MCF10A PANK4 KO+PANK4 mutant; format: cell-based; details: Homo sapiens; MCF-10A KO+PANK4 mutant, 72 h
[3] = tested on: EKVX; assay: NCI-60 growth inhibition (sulforhodamine B); format: cell-based, human; details: EKVX (Non-Small Cell Lung Cancer), negative log of Molar conc., LCONC -8
[4] = tested on: U251; assay: NCI-60 growth inhibition (sulforhodamine B); format: cell-based, human; details: U251 (CNS Cancer), negative log of Molar conc., LCONC -8
[5] = tested on: LOXIMVI; assay: NCI-60 growth inhibition (sulforhodamine B); format: cell-based, human; details: LOX IMVI (Melanoma), negative log of Molar conc., LCONC -8
[6] = tested on: SK-MEL-2; assay: NCI-60 growth inhibition (sulforhodamine B); format: cell-based, human; details: SK-MEL-2 (Melanoma), negative log of Molar conc., LCONC -8
[7] = tested on: SK-MEL-28; assay: NCI-60 growth inhibition (sulforhodamine B); format: cell-based, human; details: SK-MEL-28 (Melanoma), negative log of Molar conc., LCONC -8
[8] = tested on: OVCAR-4; assay: NCI-60 growth inhibition (sulforhodamine B); format: cell-based, human; details: OVCAR-4 (Ovarian Cancer), negative log of Molar conc., LCONC -8
[9] = tested on: NCI/ADR-RES; assay: NCI-60 growth inhibition (sulforhodamine B); format: cell-based; details: Homo sapiens, LCONC -8
[10] = tested on: M14; details: M14 (Melanoma); negative log of Molar conc.; LCONC -8
[11] = Homo sapiens, read-out: GI50 NLOGVALUE (converted)
[12] = Homo sapiens, read-out: IC50 NLOGVALUE
[13] = Homo sapiens, read-out: LC50 NLOGVALUE

## C[C@H](CN[C@@H](C(=O)Nc1ccc(-c2cnn(C)c2)cn1)c1ccccc1)c1ccc(C#N)cc1 [CPI-1612]
[1]
  inhibition of histone acetylation (H3K18Ac, H3K27Ac), Western blot: most potent activity
[2]
  IC50: 0.102 µM
[3]
  TGI NLOGVALUE: 4
[3]; [11]
  GI50: 1.51 µM
[3]; [12]
  IC50: > 100 µM
[4]; Homo sapiens, U-251, read-out: GI50 NLOGVALUE (converted)
  GI50: 2.34 µM
[4]; Homo sapiens, U-251, read-out: IC50 NLOGVALUE (converted)
  IC50: 28.8 µM
[4]; Homo sapiens, U-251, read-out: LC50 NLOGVALUE
  CC50: > 100 µM
[4]
  TGI NLOGVALUE: 4
[5]; [11]
  GI50: 0.0447 µM
[5]; Homo sapiens, read-out: IC50 NLOGVALUE (converted)
  IC50: 0.129 µM
[5]; [13]
  CC50: > 100 µM
[5]
  TGI NLOGVALUE: 4
[6]; [11]
  GI50: 0.851 µM
[6]; [12]
  IC50: > 100 µM
[6]; [13]
  CC50: > 100 µM
[6]
  TGI NLOGVALUE: 4
[7]; [11]
  GI50: 14.1 µM
[7]; [12]
  IC50: > 100 µM
[7]; [13]
  CC50: > 100 µM
[7]
  TGI NLOGVALUE: 4
[8]; [11]
  GI50: 2.04 µM
[8]; [12]
  IC50: > 100 µM
[8]; [13]
  CC50: > 100 µM
[8]
  TGI NLOGVALUE: 4
[9]; NCI/ADR-RES (Ovarian Cancer), negative log of Molar conc., read-out: GI50 NLOGVALUE (converted)
  GI50: 6.46 µM
[9]; NCI/ADR-RES, Ovarian Cancer, negative log of Molar value, EXPID 2301NS84, read-out: IC50 NLOGVALUE (converted)
  IC50: 29.5 µM
[9]; NCI/ADR-RES, Ovarian Cancer, negative log of Molar value, EXPID 2301NS84, read-out: LC50 NLOGVALUE
  CC50: > 100 µM
[10]
  TGI NLOGVALUE: 4
